Measured values taken from article PMC9555560, “Fast relaxing red and near-IR switchable azobenzenes with chalcogen and halogen substituents: periodic trends, tuneable thermal half-lives and chalcogen bonding” (Chemical Science, 2022).

Experiments:
[1] = E → Z photo-isomerisation with LEDs / photo-stationary state (PSS) determination; assay type: physicochemical; details: under irradiation
Description: The E → Z photo-isomerisation and half-life for the Z → E thermal isomerisation was evaluated for all derivatives (Fig. 7 and Table 1, see ESI ^† for original data). To our surprise, the half-lives for (Z)-X2,m-Y2 derivatives were in the order of hours to days for X = F and Cl: the effect of the meta group was not as drastic as anticipated. We typically observed a ∼4 fold decrease in half-life by substituting H with OMe, and a further 3-fold drop from OMe to NMe2 for X = F, Cl and SEt. The nature of the ortho-substituent appeared to be the main influence on τ1/2 (F > Cl ≫ SEt). However, these predictable trends observed for the meta-substitution allow for precise tuning of thermal half-lives. The photo-stationary states (PSSs) of these derivatives ranged from 48–77% Z isomer (Table 1).
Remarkably, it was possible to photo-switch the tetra-iodo derivative I4-ester using near-IR light (730 nm) (Fig. 8C). […] Photo-isomerisation was not detected for the ortho-telluro derivatives. This is consistent with findings by Haberhauer and co-workers, who propose that the strong chalcogen bonds in the E isomer of a PhTe-substituted azobenzene lead to dramatic energy differences between the E and Z isomers, which suppresses photoswitching.[43] The photo-stationary states of the halogen X4 derivatives range from 50–84% (Table 1) and could also be determined for the slower relaxing chalcogen derivatives (PSS 46–95%, see Fig. S308–S323 ^† for original data).
All UV-vis spectra were determined in DMSO solution. Extinction coefficients were determined by recording a UV-vis spectra for the E isomer at 10, 20, 30, 40 µM in DMSO respectively. The absorbance at the maximum of the π - π* transition of the E‐isomers was plotted against concentration (Beer-Lambert plot) to determine the molar extinction coefficient ε. For each slow relaxing compound, the E isomer sample at 40 µM was irradiated with the appropriate wavelength of light to generate the photo-stationary state, and another spectrum was run. This spectrum was normalised to units of ε and overlaid with the dark (100% E isomer) spectrum. […]

[2] = UV-vis spectra of the E isomers (n → π* absorption maximum); assay type: physicochemical; details: E isomer, DMSO
From the text: The UV-vis spectra of the (E)-X4 derivatives and (E)-X2,m-Y2 are shown in Fig. 3 (analogous spectra for the Z isomers, and deconvoluted spectra are available in the ESI ^†). […] The n → π* transition maximum, λmax, typically followed the order meta-H > –NMe2 > –OMe and ortho-S > Cl > F. It is clear from these experiments that the four ortho X substituents in the X4 derivatives are essential for achieving the deeply red-shifted tails which allows for red/near-IR triggered photo-isomerisation.
All UV-vis spectra were determined in DMSO solution. Extinction coefficients were determined by recording a UV-vis spectra for the E isomer at 10, 20, 30, 40 µM in DMSO respectively. The absorbance at the maximum of the π - π* transition of the E‐isomers was plotted against concentration (Beer-Lambert plot) to determine the molar extinction coefficient ε. For each slow relaxing compound, the E isomer sample at 40 µM was irradiated with the appropriate wavelength of light to generate the photo-stationary state, and another spectrum was run. This spectrum was normalised to units of ε and overlaid with the dark (100% E isomer) spectrum.

Structure (SMILES): COc1cc(/N=N/c2cc(OC)c(CNC(=O)OC(C)(C)C)cc2OC)c(OC)cc1CNC(=O)OC(C)(C)C [OMe2,m-OMe2]
- Stability to light [1]: unstable to light
- λ max of n → π* transition [2]: 426.6 nm

Structure (SMILES): CCSc1cc(CNC(=O)OC(C)(C)C)c(OC)c(SCC)c1/N=N/c1c(SCC)cc(CNC(=O)OC(C)(C)C)c(OC)c1SCC [(SEt)4,m-OMe2-NHBoc]
- Stability to light [1]: unstable to light
- λ max of n → π* transition [2]: 512.9 nm
